Experimental data reported in CN101879305A, “血清胸腺因子在制备抗肿瘤药物、肿瘤物理及化学治疗药物的保护药物方面的用途” (priority 2007, dated 2010).
Ends that are not written are not given here.

How the values were obtained:
[1] = test system: EAC腹水瘤; assay: Anti-tumour test, EAC ascites tumour in mice (Example 1); assay type: in vivo, 昆明小鼠; settings: positive control 5-氟尿嘧啶 25mg·kg-1, every other day, three times
[2] = Immune indicators in Co60-irradiated mice (white cell count, carbon clearance, organ indices) (Example 8); assay type: in vivo, 昆明鼠; settings: 650 rad Co60, after one week
[3] = test system: 人肝癌Heps瘤; assay: Anti-tumour test, human liver cancer Heps xenograft in nude mice (Example 4); assay type: in vivo, 裸鼠; settings: positive control 环磷酰胺 10mg·kg-1, single dose
[4] = test system: Walker-256瘤; assay: Anti-tumour test, Walker-256 tumour in rats (Example 3); assay type: in vivo, Wistar大鼠; settings: positive control 环磷酰胺 89.2mg.kg-1, single dose
[5] = test system: H22实体瘤; assay: Anti-tumour test, H22 solid tumour in mice (Example 2); assay type: in vivo, 昆明小鼠; settings: positive control 环磷酰胺 20mg·kg-1, single dose
[6] = Acute toxicity, single tail-vein injection, 7-day observation (Example 7); assay type: in vivo, 昆明小鼠; settings: for 死亡(%): 20 mice, 7 days; for 给药前体重: before dosing (baseline)

With `O=c1[nH]cc(F)c(=O)[nH]1` [5-氟尿嘧啶] the “生存时间(天)” value [1] was 24.3±4.1 天 and the 生命延长率 ([1]; vs blank group) was 82.7 %.
In the case of `C#C[C@]1(O)[C@H](O)C[C@H]2[C@@H]3CCc4cc(OC5CCCC5)ccc4[C@H]3CC[C@@]21C` [尼尔雌醇], the 体重增加 ([2]; positive control 尼尔雌醇 0.05mg/只 single gavage) is reported as 3.47, the 吞噬指数α ([2]; 尼尔雌醇 0.05mg/只 single gavage) is reported as 6.00 and the 廓清指数K ([2]; 尼尔雌醇 0.05mg/只 single gavage) is reported as 0.033. For the same compound, the “白细胞个数(个/mm3)” value ([2]; 尼尔雌醇 0.05mg/只 single gavage) was 2693 个/mm3, the “胸腺指数(mg/10g)” value ([2]; 尼尔雌醇 0.05mg/只 single gavage) was 28.32 mg/10g and the “脾指数(mg/10g)” value ([2]; 尼尔雌醇 0.05mg/只 single gavage) was 8.96 mg/10g.
With `C#C[C@]1(O)[C@H](O)C[C@H]2[C@@H]3CCc4cc(OC5CCCC5)ccc4[C@H]3CC[C@@]21C` [环磷酰胺] the 抑瘤率 [3] was 62.43 %, the “肿瘤的体积(mm3)” value [3] was 99.73±68.60 mm3 and the “肿瘤的重量” value [3] was 0.57 ± 0.12 g. For the same compound, the “肿瘤的重量” value [4] was 2.6 ± 1.7 g, the “抑瘤率(%)” value ([4]; vs blank group) was 85.4 % and the “实体瘤的重量” value [5] was 0.6 ± 0.5 g. The 抑瘤率 ([5]; vs blank group) was 84.8 %.
In the case of “EAKSQGGSN [FTS, Glu-Ala-Lys-Ser-Gln-Gly-Gly-Ser-Asn]”, the “死亡(%)” value ([6]; 5.0 mg/kg (0.5 mg/ml) i.v. tail vein once) is reported as 0 %, the “给药前体重” value ([6]; 5.0 mg/kg group) is reported as 22.3 ± 2.1 g and the “死亡(%)” value ([6]; 10.0 mg/kg (1.0 mg/ml) i.v. tail vein once) is reported as 0 %. The “给药前体重” value ([6]; 10.0 mg/kg group) was 23.4 ± 3.1 g, the “死亡(%)” value ([6]; 50.0 mg/kg (5.0 mg/ml) i.v. tail vein once) was 0 % and the “给药前体重” value ([6]; 50.0 mg/kg group) was 23.6 ± 2.5 g. For the same compound, the “死亡(%)” value ([6]; 100.0 mg/kg (10.0 mg/ml) i.v. tail vein once) was 0 %, the “给药前体重” value ([6]; 100.0 mg/kg group) was 23.1 ± 2.8 g and the 毒性反应或死亡 ([6]; 5.0, 10.0, 50.0 and 100.0 mg/kg groups, i.v.) was “未发现任何毒性反应或死亡”.
